The conditions of data set [1]: rat, in vivo, po, 5 mg/kg.
Method: (§1) In this experiment, male Sprague-Dawley rats (200-250 grams) implanted with jugular vein cannulas (JVC) were obtained from Charles River Laboratories. Each compound was administered to two rats or by oral gavage. The oral dose was administered as a solution in 0.5% methycellulose with a dose volume of 10 mL/kg. The amount of each compound administered was 5 mg/kg body weight. Blood samples (0.25 mL) were collected at multiple time points from 0-24 hours and placed into tubes containing lithium heparin (Becton Dickinson, Microtainer®). The blood samples were then centrifuged at 12000 rpm for 10 minutes). Plasma aliquots were taken for determination of compound plasma concentrations (pharmacokinetic analysis). The plasma samples were frozen at −70° C. until analysis.
(§2) The rat plasma samples were analyzed for compound concentrations by LC/MS/MS (Applied Biosystems API 4000 mass spectrometer). In brief, compound standard curves were prepared in control rat plasma with a dynamic range of 1.0-2000 ng/mL. Aliquots (0.02 mL) of both standards and samples Were placed into Marsh™ tubes in a 96-well block. Proteins were precipitated by addition of 0.1 mL acetonitrile containing 0.1 μg/mL of internal standard. The 96-well blocks were vortexed and then centrifuged at 3000 rpm for 5 minutes. The resulting supernatant was removed and placed into a new 96-well block and taken to dryness at 50° C. under a nitrogen stream. Residues were reconstituted in mobile phase (60% 5 mM ammonium acetate and 40% acetonitrile). Aliquots (0.01 mL) were then injected onto the LC/MS/MS for analysis.
Data set [2] can be described thus: Comparative Rat Pharmacokinetics Experiments (plasma concentrations over time after oral gavage). Particulars: male, Sprague-Dawley, 5 mg/kg.
Method: as §1, §2
Another data set has as its target T1, DPP-IV (Homo sapiens, UniProt P27487).
T1 construct: purchased MP Biomedicals, Livermore, Calif
The data set can be described thus: In vitro Assay for DPP-IV Inhibition. It counts as biochemical. Particulars: read-out: IC50 against DPP-IV. The method, then: 150 μL of an enzyme-substrate solution is pipetted into microtiter wells of a polystyrene 96-well plate, and maintained at 4° C. The enzyme-substrate solution comprises 50 μM Gly-Pro-4-methoxy-β-naphthylamide hydrochloride in 50 mM Tris assay buffer pH 7.3 containing 0.1M sodium chloride, 0.1% (v/v) Triton and 50 μU/mL DPP-IV (MP Biomedicals, Livermore, Calif.; DPP-IV 5 mU/mL stock). 5 μL per well of the compound of formula (I) is added, bringing the final concentrations of the formula (I) compound to between 3 μM and 10 nM per well.
Controls. Enzyme is omitted from four (4) wells, as a reagent blank. 5 μL of 3 mM Diprotin A (Bachem Bioscience, Inc.; King of Prussia, Pa.) is added to four wells as a positive quality control, providing a final Diprotin A concentration of 100 μM. To measure total enzyme activity (i.e., a negative control), without the influence of any compounds of formula (I), 5 μL of distilled water is added to four wells.
The entire assay is incubated overnight (between 14 and 18 hours) at 37° C. […]

pIC50: −log10 of the molar value.

T1 sequence (P27487 whole entry, species assumed): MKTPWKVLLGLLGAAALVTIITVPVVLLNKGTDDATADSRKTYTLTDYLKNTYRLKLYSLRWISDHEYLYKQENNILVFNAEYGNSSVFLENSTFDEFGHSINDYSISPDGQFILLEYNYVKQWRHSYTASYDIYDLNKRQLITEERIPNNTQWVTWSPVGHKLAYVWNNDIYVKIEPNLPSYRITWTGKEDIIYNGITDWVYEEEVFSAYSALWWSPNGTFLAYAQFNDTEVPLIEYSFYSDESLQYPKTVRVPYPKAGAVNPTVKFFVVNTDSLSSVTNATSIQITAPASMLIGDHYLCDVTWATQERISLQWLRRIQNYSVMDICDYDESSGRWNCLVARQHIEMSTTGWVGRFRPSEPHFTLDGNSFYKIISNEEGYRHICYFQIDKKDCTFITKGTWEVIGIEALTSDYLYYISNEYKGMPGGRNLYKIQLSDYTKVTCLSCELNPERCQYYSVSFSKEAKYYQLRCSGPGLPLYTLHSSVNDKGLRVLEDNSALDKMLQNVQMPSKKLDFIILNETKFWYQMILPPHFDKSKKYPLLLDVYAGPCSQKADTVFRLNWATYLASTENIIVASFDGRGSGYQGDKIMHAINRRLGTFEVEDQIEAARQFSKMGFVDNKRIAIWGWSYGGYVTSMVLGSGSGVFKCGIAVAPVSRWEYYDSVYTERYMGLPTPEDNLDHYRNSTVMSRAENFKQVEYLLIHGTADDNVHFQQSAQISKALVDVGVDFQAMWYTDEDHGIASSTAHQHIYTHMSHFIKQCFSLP

On to `O=C([C@@H]1C[C@H](N2CCN(c3ncccn3)CC2)CN1)N1CCC(F)(F)C1` [CPD 113, (3,3-Difluoropyrrolidin-1-yl)-((2S,4S)-4-(4-(pyrimidin-2-yl)piperazin-1-yl)pyrrolidin-2-yl)-methanone], for which, in data set [1], the “plasma concentrations achieved and maintained, compared with the comparator compound” value was “significantly higher plasma concentrations”. In data set [2], this compound gave a concentration at 0.25 h of 1410 ng/mL, a concentration at 0.5 h of 1320 ng/mL, a concentration at 0.75 h of 979 ng/mL and a concentration at 1 h of 768 ng/mL. In data set [2], this compound returned a concentration at 2 h of 289 ng/mL, a concentration at 4 h of 97.8 ng/mL, a concentration at 6 h of 49.3 ng/mL and a concentration at 8 h of 32.8 ng/mL.
On to `N#Cc1nccnc1N1CCN([C@@H]2CN[C@H](C(=O)N3C[C@@H](F)[C@@H](F)C3)C2)CC1` (relative stereo) [Example 10, ((2S,4S)-4-(4-(3-Cyanopyrazin-2-yl)piperazin-1-yl)pyrrolidin-2-yl)-((3R*,4S*)-3,4-difluoropyrrolidin-1-yl)-methanone], for which the pIC50 at DPP-IV was 8.46.

What is called pIC50 is the negative decadic logarithm of the IC50, by convention in mol/L.
